Assay results from article PMC12169669, “Regio- and Stereoselective Synthesis of Nitro-fatty Acids as NRF2 Pathway Activators Working under Ambient or Hypoxic Conditions” (Journal of Medicinal Chemistry, 2025).

What was measured:
[1] = Cytotoxicity assay (sulforhodamine B, SRB); assay type: cell-based; details: mouse, mouse embryonic fibroblasts (MEFs; STO)
Description: For cytotoxicity experiments, mouse embryonic fibroblasts (MEFs; STO, 86032003, Sigma-Aldrich) were cultured in DMEM (41966-029, Thermo Fisher Scientific) + 5% FBS and were seeded at 10,000 cells per well in a 96-well plate and allowed to adhere for 8 h under atmospheric conditions. Plates were then placed in incubators with the specified oxygen concentrations (21%, 4%, or 1%) and incubated overnight. The following day, the medium was replaced with fresh medium (+5% FBS) adjusted to match the target oxygen concentrations and containing the test compounds (1–100 μM). After 24 h of incubation, adherent cells were stained using a modified sulforhodamine B (SRB) assay as described in. SRB was obtained from Sigma-Aldrich (S1402). Briefly, the medium was aspirated, and cells were fixed with 10% cold trichloroacetic acid. After washing twice with distilled water, the cells were stained with 0.1% SRB dissolved in 1% acetic acid. The cells were then washed 3–4 times with 1% acetic acid and allowed to dry. The stain was solubilized with 10 mM unbuffered TRIS base, and absorbance was measured at 540 nm (Infinite M200 Pro, Tecan, Austria). The cell viability of treated samples was calculated as a percentage of nontreated controls, and IC50 values were determined (see Statistics). According to the IC50 values, a nontoxic 2 μM concentration of NO2FAs was used in further in vitro experiments. For detailed results, see Supporting Information Figure S1 and Table S3. Values are presented as arithmetic means ± standard deviations (SD), unless otherwise specified. Half-maximal inhibitory concentration (IC50) values were calculated using four-parameter logistic regression (dose vs response). For Western blot analyses, one-way ANOVA with Dunnett’s multiple comparisons test was performed against control samples. The significance level was set at p < 0.05. Statistical analyses were conducted using GraphPad Prism v10.4 (GraphPad Software, www.graphpad.com). Statistical methods and the number of experiments are indicated in the figure legends. page 9: Supporting information S9 Cytotoxicity of tested NO2FA derivatives (Figure S1) 1 10 100 0 50 100 150 21% O2 Concentration (µM) % of control 1 10 100 0 50 100 150 4% O2 Concentration (µM) % of control 1 10 100 0 50 100 150 1% O2 Concentration (µM) % of control 10-NO2OA 9-NO2OA 10-NO2LA 9-NO2cLA 10-NO2SA A B C Figure S 1. Cytotoxicity of tested NO2FA derivatives. Mouse embryonic fibroblasts (MEFs) were cultured under varying oxygen conditions (21, 4, and 1%) and treated for 24 hours with the tested NO₂FAs, after which adherent cells were stained with sulforhodamine B. Results are presented as a percentage of control cells across different oxygen culture conditions (A–C). IC₅₀ values were determined from dose-response curves (see Supplementary Table S3). Data are expressed as mean ± SD from three independent experiments (n = 3). (1 picture or pasted object on this page, not shown here) page 11: Supporting information Calculated IC50 values of tested NO2FA derivatives (Table S3) Table S 3. Calculated IC50 values of tested NO2FA derivatives. IC 21% O2 4% O2 1% O2 50 Value SEM Value SEM Value SEM 10-NO2OA 6.28 0.19 5.74 0.20 8.19 0.21 9-NO2OA 9.47 0.57 7.75 0.54 6.93 0.32 10-NO2LA 11.78 0.41 11.17 0.26 13.79 1.02 9-NO2cLA 18.03 1.96 17.19 2.26 14.31 1.82 10-NO2SA ≈100 >100 >100 IC₅₀ values were derived from dose-response curves using four-parameter logistic regression across different oxygen culture conditions. Data are presented as mean and SEM values from three independent experiments (n = 3). The IC₅₀ values calculated for cultures in 21% oxygen indicate an increasing cytotoxic potential in the order: 10-NO₂OA > 9-NO₂OA > 10-NO₂LA > 9-NO₂cLA. […] In 1% oxygen, the order of cytotoxic potential shifted slightly to 9-NO₂OA > 10-NO₂OA > 10-NO₂LA > 9-NO₂cLA. However, differences in IC₅₀ values across the oxygen conditions for each NO₂FA derivative ranged from ca. 1 to 3 µM. […]

NRF2 = NRF2 translocation assay (nuclear fraction, Western blot); assay type: cell-based, mouse; details: BMCs, 2 μM, 1 h, 1% oxygen; for translocation of NRF2 to the nucleus, fold change relative to control: nuclear fraction
Description: For the NRF2 translocation assays, 5.5 × 10^6 BMCs were incubated in 0.5 mL of complete medium with 2 μM NO2FAs or the control for 1 h in 1.5 mL microtubes, but only at 1% oxygen. Cytosol, membrane and nuclear cell compartments were isolated with a Cell Fractionation Kit (9038, Cell Signaling Technology) according to the manufacturer’s instructions. Equal volumes of nuclear lysates (20 μL/well) were loaded onto 7–15% SDS-polyacrylamide gels. Histone H3 was used as the loading control for the nuclear fraction.
5 Subcellular localization of NRF2. NO 2 FA derivatives promote nuclear translocation of NRF2 in mouse BMCs. BMCs were cultured under 1% oxygen conditions and treated for 1 h with 2 μM of 10-NO 2 OA, 10-NO 2 LA, or 10-NO 2 SA. A cell fractionation kit was used to isolate the nuclear fraction (A), followed by the detection of NRF2 and histone H3 (used as a control nuclear protein). Western blot results (A) are shown as the fold change relative to control cells. Data are expressed as mean ± SD from two independent experiments (n = 2). Statistical analysis was performed using one-way ANOVA with Dunnett’s multiple comparisons test (* p < 0.05; *** p < 0.001). (B) Representative immunocytochemistry staining of BMCs with NRF2 antibody. BMCs were cultured in 1% oxygen followed by NRF2 and nuclei (DAPI) staining. Treatment with 10-NO2OA increased the colocalization of NRF2 with the nucleus (scale bar: 20 μm).

| Compound | IC50 at 24 h ([1]; 1% O2) | IC50 at 24 h ([1]; 4% O2) | IC50 at 24 h ([1]; 21% O2) | IC50 at 24 h ([1]; under all three oxygen conditions (21, 4, 1%)) | translocation of NRF2 to the nucleus, fold change relative to control (NRF2) | NRF2 translocation activity relative to 10-NO2LA (NRF2) |
| --- | --- | --- | --- | --- | --- | --- |
| CCCCCCCCC(CCCCCCCCC(=O)O)[N+](=O)[O-] (centres unmarked) [10-NO2SA, 10-Nitro Stearic acid] | > 100 µM | > 100 µM | ~100 µM | ≥ 100 µM | no effects |  |
| CCCCCCCC/C=C(\CCCCCCCC(=O)O)[N+](=O)[O-] [9-NO2OA, (9E)-9-Nitro-oleic Acid] | 6.93 ± 0.32 µM | 7.75 ± 0.54 µM | 9.47 ± 0.57 µM |  |  |  |
| CCCCCC/C=C/C=C(\CCCCCCCC(=O)O)[N+](=O)[O-] [9-NO2cLA, (9E,11E)-9-Nitro Conjugated Linoleic Acid] | 14.3 ± 1.82 µM | 17.2 ± 2.26 µM | 18 ± 1.96 µM |  |  |  |
| CCCCC/C=C\C/C(=C\CCCCCCCC(=O)O)[N+](=O)[O-] [10-NO2LA, (9E,12Z)-10-Nitro Linoleic Acid] | 13.8 ± 1.02 µM | 11.2 ± 0.26 µM | 11.8 ± 0.41 µM |  | significantly increased |  |
| CCCCCCCC/C(=C\CCCCCCCC(=O)O)[N+](=O)[O-] [10-NO2OA, (9E)-10-Nitro-oleic Acid] | 8.19 ± 0.21 µM | 5.74 ± 0.2 µM | 6.28 ± 0.19 µM |  | significantly increased | ca. 1.7 fold |
